Measured values reported in publication PMC3835680, “Inhibition of Nutlin-Resistant HDM2 Mutants by Stapled Peptides” (PLoS ONE, 2013).
“Also recorded” adds a separate entry of the source. FAM = carboxyfluorescein

What was measured:
HDM2 (1-125) P20L = target: T1, HDM2 (1-125) P20L (Homo sapiens, UniProt Q00987, P20L); experiment: Fluorescence anisotropy, competitive titration, HDM2 P20L; assay type: binding; conditions: P20L compared to wild-type
T1 construct: using purified HDM2 (1-125) and carboxyfluorescein (FAM) labeled 12-1 peptide; GST (N, cleaved yes); made in house; host or cells: E. coli BL21 DE3
T1 sequence (Q00987 1-125 P20L): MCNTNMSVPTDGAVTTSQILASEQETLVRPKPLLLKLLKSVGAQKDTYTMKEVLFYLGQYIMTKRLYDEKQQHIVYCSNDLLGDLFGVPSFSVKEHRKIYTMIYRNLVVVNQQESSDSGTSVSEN
Experimental: (§1) Cells harbouring the GST fusion constructs were grown in LB medium at 37°C to an OD600 of ~0.6 and induction was carried out with 1 mM IPTG at room temperature. Cells were harvested by centrifugation and the cell pellets were resuspended in 50 mM Tris pH 8.0, 10% sucrose and then sonicated. The sample was next centrifuged for 60 mins at 17,000 g at 4°C. The supernatant was applied to a 5 mL FF GST column (Amersham) pre-equilibrated in wash buffer (50 mM Tris-HCl pH 8.0, 150 mM NaCl, 1 mM DTT). The column was then further washed by 6 volumes of wash buffer. HDM2 constructs were then purified from the column by cleavage with Precission protease (GE Lifesciences). 10 units of precission protease, in one column volume of wash buffer, were injected onto the column. The cleavage reaction was allowed to proceed overnight at 4°C. The cleaved protein was then eluted off the column with wash buffer. Protein fractions were analyzed with SDS page gel and concentrated using Centricon (3.5 kDa MWCO) concentrator. […] Protein fractions were analyzed with SDS page gel and concentrated using a Centricon (3.5 kDa MWCO) concentrator, Millipore.
(§2) All titrations were carried out in triplicate. Curve-fitting was carried out using Prism 4.0 (GraphPad).

[1] = tested on: HDM2-p53 interaction (Q24R HDM2); experiment: In vitro pull-down assay, p53-HDM2 Q24R; assay type: binding; conditions: 10 µM, IVT-expressed proteins
Source text: (§3) Single mutant HDM2 clones were generated by Quickchange mutagenesis (Stratagene) of parental HDM2-PET22b using appropriate primers 1-6. The constructs were amplified with primers petF2 and petR to make HDM2 amplicons with T7 promoter and ribosome binding site required for in vitro transcription-translation (IVT) of wild-type or mutant HDM2. Primers 1-6 were used to introduce mutations into the parental pCMV-HDM2 mammalian expression construct by Quickchange mutagenesis. Both the HDM2-PET22b and pCMV-HDM2 constructs additionally encode a C-terminal HA tag.
(§4) Protein G beads (Invitrogen) were incubated with anti-HA (1 µg per 10 µL beads) for 1 hour in PBST-3%BSA and subsequently washed twice in PBST-0.1%BSA. IVT-expressed wild-type or mutant HDM2 was incubated with the beads on a rotator for 30 mins. […] IVT-expressed p53 was added to the mixture and incubation allowed for 1 hour. Beads were finally washed thrice in PBST-0.1%BSA and thrice with PBS, and bound proteins eluted by resuspension in 20 µL SDS-PAGE loading buffer and incubation at 95°C for 5 minutes. Both the eluates and inputs were subjected to electrophoresis, transferred to nitrocellulose membranes and probed for p53 with horseradish peroxidise conjugated DO1 antibody (Santa Cruz) or for HDM2 with anti-HA antibody followed by rabbit anti-mouse (Dakocytomation).

[2] = tested on: wild-type HDM2 / p53 transactivation in p53/MDM2-null DKO cells; experiment: p53 reporter assay in p53/MDM2-null DKO cells, wild-type HDM2; assay type: cell-based, mouse; conditions: stapled peptide, 20 µM, mean ± SD (n=2)
[3] = tested on: HDM2-p53 interaction (M62A HDM2); experiment: In vitro pull-down assay, p53-HDM2 M62A; assay type: binding; conditions: 10 µM, IVT-expressed proteins
Source text: as §3, §4

[4] = tested on: HDM2-p53 interaction (wild-type HDM2); experiment: In vitro pull-down assay, p53-HDM2 wild-type; assay type: binding; conditions: 10 µM, IVT-expressed proteins
Source text: as §3, with “tag. The plasmid p53-PET22b was also amplified with petF2 and petR to make template for IVT of wild-type p53.” for “tag.”
as §4, with “Both the eluates and inputs were subjected to electrophoresis, transferred to nitrocellulose membranes and probed for p53 with horseradish peroxidise conjugated DO1 antibody (Santa Cruz) or for HDM2 with anti-HA antibody followed by rabbit anti-mouse (Dakocytomation).” left out

HDM2 (1-125) Q24R = target: T2, HDM2 (1-125) Q24R (Homo sapiens, UniProt Q00987, Q24R); experiment: Fluorescence anisotropy, competitive titration, HDM2 Q24R; assay type: binding; conditions: Q24R compared to wild-type
T2 construct: using purified HDM2 (1-125) and carboxyfluorescein (FAM) labeled 12-1 peptide; GST (N, cleaved yes); made in house; host or cells: E. coli BL21 DE3
T2 sequence (Q00987 1-125 Q24R): as the sequence (Q00987 1-125 P20L) above, with L20P, Q24R counted along it
Experimental: as §1, §2

HDM2 (1-125) M62A = target: T3, HDM2 (1-125) M62A (Homo sapiens, UniProt Q00987, M62A); experiment: Fluorescence anisotropy, competitive titration, HDM2 M62A; assay type: binding; conditions: M62A compared to wild-type
T3 construct: using purified HDM2 (1-125) and carboxyfluorescein (FAM) labeled 12-1 peptide; GST (N, cleaved yes); made in house; host or cells: E. coli BL21 DE3
T3 sequence (Q00987 1-125 M62A): as the sequence (Q00987 1-125 P20L) above, with L20P, M62A counted along it
Experimental: as §1, §2

[5] = tested on: M62A HDM2 / p53 transactivation in p53/MDM2-null DKO cells; experiment: p53 reporter assay in p53/MDM2-null DKO cells, HDM2 M62A; assay type: cell-based, mouse; conditions: stapled peptide, 20 µM, mean ± SD (n=2)
[6] = tested on: wild-type and mutant (M62A, Q24R) HDM2; p53-dependent genes in HCT116 p53^+/+ cells; experiment: RT-qPCR of p53-regulated genes in HCT116 p53+/+ cells transfected with HDM2 variants; assay type: cell-based; conditions: Nutlin 10 µM; M62A and Q24R compared to wild-type; 24 h post-transfection; RT-qPCR (n=2)
Source text: In all cases, the total amount of plasmid DNA transfected per well was equilibrated by addition of the parental vector pcDNA3.1a(+).

[7] = tested on: p53 (1-81) - HDM2 (7-134) interaction, wild-type, Q24R and M62A, in BHK cells; experiment: Fluorescent 2-Hybrid (F2H) co-localization assay; assay type: cell-based; conditions: 1 hour at 37°C, titration, difference particularly evident at 1-10 µM for Nutlin, n=4
Experimental: Interaction (%) was determined as the ratio of cells showing co-localization of fluorescent signals at the nuclear spot to the total number of evaluated cells. To enable comparison between the experiments, a normalization step was performed. For each independent experiment, the interaction ratios in treated wells were normalized to the interaction ratios in control (untreated) wells:
I % = 100% * Interactions_treated/Interactions_untreated
In this way, the control values in each experiment are taken to be 100%. For automated image acquisition an INCell Analyzer 1000 with a 20X objective (GE Healthcare) was used. Automated image segmentation and analysis was performed with the corresponding INCell Workstation 3.6 software. At least 100 co-transfected cells were analyzed per well. Titrations were carried out independently three to five times.
For the F2H assay, significance (t-test) is denoted relative to the percentage interactions observed for wild-type HDM2 under the indicated treatment conditions. For transcript analysis by real-time PCR, two-way ANOVA with Bonferroni post test was performed using GraphPad Prism software.

HDM2 M62 = conditions: ref [19]; cited from earlier work
Source text: Modelling studies show the hydrophobic hydrocarbon chain comprising the staple interacts with HDM2 in the vicinity of M62 (Figure 6). Whilst the M62A mutation impacts negatively on binding of both stapled peptide and p53 compared to wild type HDM2, the presence of additional “fall-back” interactions (apart from M62, see below) results in marginal overall loss of binding by these ligands. […] Mutation to alanine causes marg ...

HDM2 Y104G = conditions: mutation in secondary Nutlin binding site; ref [54]; cited from earlier work
Source text: Studies have shown that K51 of HDM2 interacts with E23 and E25 of HDM ...

[8] = target: T4, HDM2 (1-125) M62A, purified (human, UniProt Q00987 1-125, M62A); experiment: fluorescence polarisation; competitive fluorescence anisotropy titrations against FAM-labelled 12-1 peptide with purified HDM2 (1-125); apparent Kds; PBS pH 7.4, 3% DMSO, 0.1% Tween 20
T4 construct: also called HDM2-M62A; source: E. coli BL21 DE3, purified (GST column, PreScission cleavage, ResourceS)
T4 sequence (Q00987 1-125 M62A): as the sequence (Q00987 1-125 P20L) above, with L20P, M62A counted along it

[9] = target: T5, HDM2 (1-125) P20L, purified (human, UniProt Q00987 1-125, P20L); experiment: as above
T5 construct: source: E. coli BL21 DE3, purified (GST column, PreScission cleavage, ResourceS)
T5 sequence (Q00987 1-125 P20L): as the sequence (Q00987 1-125 P20L) above

[10] = target: T6, HDM2 (1-125), wild-type, purified (human, UniProt Q00987 1-125); experiment: as above
T6 construct: source: E. coli BL21 DE3, purified (GST column, PreScission cleavage, ResourceS)
T6 sequence (Q00987 1-125): as the sequence (Q00987 1-125 P20L) above, with L20P counted along it

[11] = target: T7, HDM2 (1-125) Q24R, purified (human, UniProt Q00987 1-125, Q24R); experiment: as above
T7 construct: source: E. coli BL21 DE3, purified (GST column, PreScission cleavage, ResourceS)
T7 sequence (Q00987 1-125 Q24R): as the sequence (Q00987 1-125 P20L) above, with L20P, Q24R counted along it

For `CC(=O)N[C@H](C(=O)N[C@@H](CO)C(=O)N[C@@H](Cc1ccccc1)C(=O)N[C@]1(C)CCCCCCC=CCCC[C@@](C)(C(N)=O)NC(=O)[C@H](CC(C)C)NC(=O)[C@H](CC(C)C)NC(=O)[C@H](C)NC(=O)[C@H](Cc2c[nH]c3cc(Cl)ccc23)NC(=O)[C@H](Cc2ccc(O)cc2)NC(=O)[C@H](CCC(=O)O)NC1=O)[C@@H](C)O` [MO11], the “Change of binding affinity versus wild-type HDM2” value (from here on “Change”) (HDM2 (1-125) P20L) was “not perturbed”, the “Inhibition of p53-HDM2 interaction (pull-down, Western blot)” value (shortened to “Inhibition of p53-HDM2 interaction”) [1] was “able to abrogate the mutant HDM2-p53 interaction as efficiently as Nutlin inhibits the wild-type HDM2-p53 interaction; also recorded: inhibition of p53 binding to both WT and mutant HDM2” and the “p53 reporter activity restored (percentage of activity with p53-only transfection)” value [2] was 51%. The “Inhibition of p53-HDM2 interaction” value [3] was “able to abrogate the mutant HDM2-p53 interaction as efficiently as Nutlin inhibits the wild-type HDM2-p53 interaction; also recorded: inhibition of p53 binding to both WT and mutant HDM2”, the “Inhibition of p53-HDM2 interaction” value [4] was “strong repression of the HDM2-p53 interaction; also recorded: inhibition of p53 binding to both WT and mutant HDM2” and the “Change” value (HDM2 (1-125) Q24R) was “not perturbed”. For the same molecule, the “Change” value (HDM2 (1-125) M62A) was “very slight perturbation of binding” and the “p53 reporter activity restored (percentage of activity with p53-only transfection)” value [5] was 47%.

For `COc1ccc(C2=N[C@@H](c3ccc(Cl)cc3)[C@@H](c3ccc(Cl)cc3)N2C(=O)N2CCNC(=O)C2)c(OC(C)C)c1` [Nutlin], the “p53 activation of p21, gadd45α and 14-3-3σ transcript levels, mutants versus wild-type HDM2” value [6] is given as “significant reduction of p53 transcriptional activity was observed for the M62A and Q24R mutants compared to wild-type”, the “Dissociation of p53-HDM2 complex, mutants (Q24R, M62A) versus wild-type (F2H)” value [7] is given as “reduced dissociation of mutant N-terminal domains from p53, indicating Nutlin resistance; also recorded: increased dissociation of WT-p53 complex compared to Q24R/M62A-p53 complexes” and the “Effect of loss of M62 contact on Nutlin binding” value (HDM2 M62) is given as “major loss of binding”. For the same molecule, the “Inhibition of p53-HDM2 interaction” value [4] was “strong repression of the HDM2-p53 interaction; also recorded: inhibits p53-HDM2 interaction” and the “Binding to HDM2 Y104G” value (HDM2 Y104G) was “recalcitrant to Nutlin binding”.

P53 peptide (ligand of Table 1) gave a Kd [8] of 29.6 nM, a Kd [9] of 17.2 nM and a Kd [10] of 13.9 nM. For the same molecule, the Kd [11] was 10.4 nM.

B1: carboxyfluorescein (FAM) labeled 12-1 peptide (FAM-RFMDYWEGL-NH2) (peptide)
peptide: {FAM}-RFMDYWEGL-NH2
notes: that it is not a natural p53 stretch is my surmise
B1: binds ([8]; both partners purified); binds ([9]; both partners purified); binds ([10]; both partners purified). B1: binds ([11]; both partners purified).
